The structures appear in SMILES notation. Some results are limits rather than exact numbers.

Here are results for 31 molecules from patent publication US20250179078A1, “INHIBITORS OF NLRP3” (PTC THERAPEUTICS, INC., priority 2022, published 2025).

For this assay, the target named is T1, NLRP3 (Homo sapiens, UniProt Q96P20).
T1 construct: host or cells: THP-1 cells differentiated with PMA
T1 sequence (Q96P20 whole entry): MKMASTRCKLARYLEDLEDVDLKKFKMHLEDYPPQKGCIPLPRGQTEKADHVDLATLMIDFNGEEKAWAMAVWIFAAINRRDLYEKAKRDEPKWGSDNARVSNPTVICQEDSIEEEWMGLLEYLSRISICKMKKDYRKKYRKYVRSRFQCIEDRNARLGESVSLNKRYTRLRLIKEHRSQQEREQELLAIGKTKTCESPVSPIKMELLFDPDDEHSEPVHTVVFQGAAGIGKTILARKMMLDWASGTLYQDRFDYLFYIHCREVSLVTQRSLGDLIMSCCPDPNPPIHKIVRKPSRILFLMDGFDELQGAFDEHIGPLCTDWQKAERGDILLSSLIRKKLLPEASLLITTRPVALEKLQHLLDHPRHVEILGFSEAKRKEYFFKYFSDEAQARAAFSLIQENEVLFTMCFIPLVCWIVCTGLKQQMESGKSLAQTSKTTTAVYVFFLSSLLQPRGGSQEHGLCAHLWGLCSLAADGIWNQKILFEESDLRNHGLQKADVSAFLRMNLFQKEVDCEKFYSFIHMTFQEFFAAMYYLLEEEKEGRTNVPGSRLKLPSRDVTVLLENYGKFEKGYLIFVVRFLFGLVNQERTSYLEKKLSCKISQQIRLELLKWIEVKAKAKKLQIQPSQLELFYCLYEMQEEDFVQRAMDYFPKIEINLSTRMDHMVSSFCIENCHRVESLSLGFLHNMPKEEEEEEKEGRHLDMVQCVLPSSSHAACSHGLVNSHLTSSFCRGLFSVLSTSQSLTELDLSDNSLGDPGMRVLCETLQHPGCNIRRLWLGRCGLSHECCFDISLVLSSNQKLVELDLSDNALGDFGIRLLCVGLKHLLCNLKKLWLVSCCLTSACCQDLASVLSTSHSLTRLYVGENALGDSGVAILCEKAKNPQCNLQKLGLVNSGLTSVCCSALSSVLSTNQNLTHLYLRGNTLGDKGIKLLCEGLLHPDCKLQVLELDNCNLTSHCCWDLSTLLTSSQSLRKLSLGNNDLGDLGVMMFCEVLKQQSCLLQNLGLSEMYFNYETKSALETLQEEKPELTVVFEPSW
The experiment in a line: IL-1β Secretion Assay (NLRP3-dependent IL1β secretion in THP1 cells). As to conditions: PMA-differentiated THP-1 cells; compounds incubated 20 h; 2.5 μM Nigericin 3 h; HTRF IL-1β readout; read-out: IC50 IL-1β Inhibition. The format is cell-based. The method in brief: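 IL-1β in conditioned media, measured by HTRF after 3 h 2.5 μM nigericin stimulation, gave % inhibition fitted logistically for IC50. Before that, PMA-differentiated (100 ng/mL, 24 h) THP-1 cells were preincubated 20 h with 7 compound concentrations (3-fold serial, DMSO 1:200).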
In general terms: In TR-FRET formats the signal depends on donor and acceptor labels being close together.
For orientation: IC50 means the point on the concentration scale where inhibition reaches its midpoint. As for `O[C@@H]1COCC[C@H]1Nc1nnc(-c2ccc(C(F)(F)F)cc2CC(F)(F)F)c2cncn12` [Compound 313, (3S,4R)-4-({1-[2-(2,2,2-trifluoroethyl)-4-(trifluoromethyl)phenyl]imidazo[1,5-d][1,2,4]triazin-4-yl}amino)oxan-3-ol], the IC50 is 1 to 10 nM.
For `COc1ccc(-c2nnc(N[C@H]3C[C@@](C)(O)C3)n3ccc(F)c23)c(OC(F)(F)F)c1` [Compound 54, (1s,3s)-3-({8-fluoro-1-[4-methoxy-2-(trifluoromethoxy)phenyl]pyrrolo[1,2-d][1,2,4]triazin-4-yl}amino)-1-methylcyclobutan-1-ol] the value was 10 to 100 nM; for `COc1ccc(-c2nnc(NC3CC(C(C)(C)O)C3)n3cncc23)c(OC(F)(F)F)c1` (stereo not shown) [Compound 338, 2-[3-({1-[4-methoxy-2-(trifluoromethoxy)phenyl]imidazo[1,5-d][1,2,4]triazin-4-yl}amino)cyclobutyl]propan-2-ol], 100 to 300 nM.
For `O[C@@H]1CCCC[C@H]1Nc1nnc(-c2ccc(C(F)(F)F)cc2OC(F)(F)F)c2cccn12` [Compound 151, (1R,2R)-2-({1-[2-(trifluoromethoxy)-4-(trifluoromethyl)phenyl]pyrrolo[1,2-d][1,2,4]triazin-4-yl}amino)cyclohexan-1-ol], the IC50 fell in the range of 1 to 10 nM.
Turning to `CN1CCC[C@@H](Nc2nnc(-c3ccc(C(F)(F)F)cc3OC(F)(F)F)c3cncn23)C1` [Compound 197, N-[(3R)-1-methylpiperidin-3-yl]-1-[2-(trifluoromethoxy)-4-(trifluoromethyl)phenyl]imidazo[1,5-d][1,2,4]triazin-4-amine], the IC50 is less than 1 nM.
Regarding `Cc1ccc(-c2nnc(N[C@H]3CCCC[C@@H]3O)n3cccc23)c(OC(F)F)c1` [Compound 80, (1S,2S)-2-({1-[2-(difluoromethoxy)-4-methylphenyl]pyrrolo[1,2-d][1,2,4]triazin-4-yl}amino)cyclohexan-1-ol], the IC50 lay in the range of 10 to 100 nM.
In the case of `COc1ccc(-c2nnc(Nc3cc[nH]n3)n3cncc23)c(C(F)(F)F)c1` [Compound 228, 1-[4-methoxy-2-(trifluoromethyl)phenyl]-N-(1H-pyrazol-3-yl)imidazo[1,5-d][1,2,4]triazin-4-amine], the IC50 fell in the range of 10 to 100 nM.
Take `FC(F)(F)Cc1cc(C(F)(F)F)ccc1-c1nnc(Nc2cc[nH]n2)n2cncc12` [Compound 267, N-(1H-pyrazol-3-yl)-1-[2-(2,2,2-trifluoroethyl)-4-(trifluoromethyl)phenyl]imidazo[1,5-d][1,2,4]triazin-4-amine]: the IC50 is 1 to 10 nM.
Take `O[C@H]1CCOC[C@@H]1Nc1nnc(-c2ccc(C(F)(F)F)cc2CC(F)(F)F)c2cncn12` [Compound 400, (3S,4S)-3-({1-[2-(2,2,2-trifluoroethyl)-4-(trifluoromethyl)phenyl]imidazo[1,5-d][1,2,4]triazin-4-yl}amino)oxan-4-ol]: the IC50 was 10 to 100 nM.
As to `COc1ccc(-c2nnc(Nc3cc[nH]n3)n3cncc23)c(OC(F)(F)F)c1` [Compound 220, 1-[4-methoxy-2-(trifluoromethoxy)phenyl]-N-(1H-pyrazol-3-yl)imidazo[1,5-d][1,2,4]triazin-4-amine], the IC50 was in the range of 100 to 300 nM.
On to `CCN1CC[C@@H](O)[C@@H](Nc2nnc(-c3ccc(OC(F)F)cc3OC(F)(F)F)c3cccn23)C1` [Compound 171, (3S,4R)-3-({1-[4-(difluoromethoxy)-2-(trifluoromethoxy)phenyl]pyrrolo[1,2-d][1,2,4]triazin-4-yl}amino)-1-ethylpiperidin-4-ol], for which the IC50 was less than 1 nM.
The value for `O[C@@H]1CCCC[C@H]1Nc1nnc(-c2ccc(C(F)(F)F)cc2C(F)(F)F)c2cncn12` [Compound 243, (1R,2R)-2-({1-[2,4-bis(trifluoromethyl)phenyl]imidazo[1,5-d][1,2,4]triazin-4-yl}amino)cyclohexan-1-ol] was less than 1 nM; that for `Cc1ccc(-c2nnc(NC3CCNC3=O)n3cccc23)c(CC(F)(F)F)c1` (stereo not shown) [Compound 157, 3-({1-[4-methyl-2-(2,2,2-trifluoroethyl)phenyl]pyrrolo[1,2-d][1,2,4]triazin-4-yl}amino)pyrrolidin-2-one] was 1 to 10 nM.
On to `CCN1CCC[C@@H](Nc2nnc(-c3ccc(C(F)(F)F)cc3OC(F)(F)F)c3cc(C)nn23)C1` [Compound 365, N-[(3R)-1-ethylpiperidin-3-yl]-2-methyl-4-[2-(trifluoromethoxy)-4-(trifluoromethyl)phenyl]pyrazolo[1,5-d][1,2,4]triazin-7-amine], for which the IC50 fell in the range of 1 to 10 nM.
With `CC(Nc1nnc(-c2ccc(C(F)(F)F)cc2OC(F)(F)F)c2cccn12)c1cccc(O)c1` (stereo not shown) [Compound 142, 3-[1-({1-[2-(trifluoromethoxy)-4-(trifluoromethyl)phenyl]pyrrolo[1,2-d][1,2,4]triazin-4-yl}amino)ethyl]phenol], the IC50 was 1 to 10 nM.
On to `CC(Nc1nnc(-c2ccc(C3CC3)cc2CC(F)(F)F)c2cncn12)c1cccc(O)c1` (stereo not shown) [Compound 354, 3-[1-({1-[4-cyclopropyl-2-(2,2,2-trifluoroethyl)phenyl]imidazo[1,5-d][1,2,4]triazin-4-yl}amino)ethyl]phenol], for which the IC50 lay within 1 to 10 nM.
In the case of `COc1ccc(-c2nnc(N[C@@H]3CCCN(CCO)C3)n3ccc(F)c23)c(Cl)c1` [Compound 83, 2-[(3R)-3-{[1-(2-chloro-4-methoxyphenyl)-8-fluoropyrrolo[1,2-d][1,2,4]triazin-4-yl]amino}piperidin-1-yl]ethan-1-ol], the IC50 fell in the range of 1 to 10 nM.
`CN1CCC[C@@H](Nc2nnc(-c3ccc(C(F)(F)F)cc3CC(F)(F)F)c3cncn23)C1` [Compound 2, N-[(3R)-1-methylpiperidin-3-yl]-1-[2-(2,2,2-trifluoroethyl)-4-(trifluoromethyl)phenyl]imidazo[1,5-d][1,2,4]triazin-4-amine]: the IC50 is less than 1 nM.
For the molecule `O[C@H]1CCC[C@@H](Nc2nnc(-c3ccc(C(F)(F)F)cc3OC(F)(F)F)c3cncn23)C1` [Compound 240, (1S,3R)-3-({1-[2-(trifluoromethoxy)-4-(trifluoromethyl)phenyl]imidazo[1,5-d][1,2,4]triazin-4-yl}amino)cyclohexan-1-ol], the IC50 was less than 1 nM.
The value for `COc1ccc(-c2nnc(N[C@H]3C[C@@](C)(O)C3)n3cncc23)c(OCC(F)(F)F)c1` [Compound 305, (1s,3s)-3-({1-[4-methoxy-2-(2,2,2-trifluoroethoxy)phenyl]imidazo[1,5-d][1,2,4]triazin-4-yl}amino)-1-methylcyclobutan-1-ol] was 10 to 100 nM.
Turning to `O[C@@H]1COCC[C@@H]1Nc1nnc(-c2ccc(C(F)(F)F)cc2CC(F)(F)F)c2cccn12` [Compound 115, (3S,4S)-4-({1-[2-(2,2,2-trifluoroethyl)-4-(trifluoromethyl)phenyl]pyrrolo[1,2-d][1,2,4]triazin-4-yl}amino)oxan-3-ol], the IC50 was in the range of 1 to 10 nM.
With `CCC(=O)c1ccc(-c2nnc(N[C@@H]3CCCN(C)C3)n3cccc23)c(OC(F)F)c1` [Compound 95, 1-[3-(difluoromethoxy)-4-(4-{[(3R)-1-methylpiperidin-3-yl]amino}pyrrolo[1,2-d][1,2,4]triazin-1-yl)phenyl]propan-1-one], the IC50 fell in the range of 1 to 10 nM.
Take `FC(F)Oc1cc(C(F)(F)F)ccc1-c1nnc(N[C@@H]2CCCOC2)n2cncc12` [Compound 188, 1-[2-(difluoromethoxy)-4-(trifluoromethyl)phenyl]-N-[(3R)-oxan-3-yl]imidazo[1,5-d][1,2,4]triazin-4-amine]: the IC50 was in the range of 10 to 100 nM.
Consider `OCCN1CCC[C@@H](Nc2nnc(-c3ccc(Br)cc3C(F)(F)F)c3cncn23)C1` [Compound 201, 2-[(3R)-3-({1-[4-bromo-2-(trifluoromethyl)phenyl]imidazo[1,5-d][1,2,4]triazin-4-yl}amino)piperidin-1-yl]ethan-1-ol], for which the IC50 lay within 1 to 10 nM.
As to `O[C@@H]1CCCC[C@H]1Nc1nnc(-c2ccc(OC(F)F)cc2OC(F)(F)F)c2cncn12` [Compound 246, (1R,2R)-2-({1-[4-(difluoromethoxy)-2-(trifluoromethoxy)phenyl]imidazo[1,5-d][1,2,4]triazin-4-yl}amino)cyclohexan-1-ol], the concentration for half-maximal inhibition (IC50) is less than 1 nM.
With `Cc1cc2c(-c3ccc(C4CC4)cc3C(F)F)nnc(N[C@@H]3CCCN(C)C3)n2c1` [Compound 14, 1-[4-cyclopropyl-2-(difluoromethyl)phenyl]-7-methyl-N-[(3R)-1-methylpiperidin-3-yl]pyrrolo[1,2-d][1,2,4]triazin-4-amine], the IC50 is 1 to 10 nM.
As for `CN1CCCC(Nc2nnc(-c3ccc(OC(F)F)cc3OC(F)(F)F)c3cncn23)C1=O` (stereo not shown) [Compound 328, 3-({1-[4-(difluoromethoxy)-2-(trifluoromethoxy)phenyl]imidazo[1,5-d][1,2,4]triazin-4-yl}amino)-1-methylpiperidin-2-one], the IC50 was in the range of 10 to 100 nM.
For `COc1ccc(-c2nnc(N[C@@H]3CCC[C@H](O)C3)n3cccc23)c(C2CC2)c1` [Compound 106, (1S,3R)-3-{[1-(2-cyclopropyl-4-methoxyphenyl)pyrrolo[1,2-d][1,2,4]triazin-4-yl]amino}cyclohexan-1-ol] the value was 10 to 100 nM; for `Cc1cc2c(-c3ccc(C(F)(F)F)cc3C(F)(F)F)nnc(N[C@@H]3CCCC[C@H]3O)n2c1` [Compound 160, (1R,2R)-2-({1-[2,4-bis(trifluoromethyl)phenyl]-7-methylpyrrolo[1,2-d][1,2,4]triazin-4-yl}amino)cyclohexan-1-ol], 1 to 10 nM; for `O[C@@H]1CCCC[C@@H]1Nc1nnc(-c2ccc(C(F)(F)F)cc2OC(F)F)c2cccn12` [Compound 79, (1R,2S)-2-({1-[2-(difluoromethoxy)-4-(trifluoromethyl)phenyl]pyrrolo[1,2-d][1,2,4]triazin-4-yl}amino)cyclohexan-1-ol], 10 to 100 nM.
For the molecule `COc1ccc(-c2nnc(N[C@H]3C[C@@H](CO)C3)n3cncc23)c(CC(F)(F)F)c1` [Compound 314, [(1s,3s)-3-({1-[4-methoxy-2-(2,2,2-trifluoroethyl)phenyl]imidazo[1,5-d][1,2,4]triazin-4-yl}amino)cyclobutyl]methanol], the concentration for half-maximal inhibition (IC50) lay within 1 to 10 nM.
